Data from article PMC3724358 (The journal of physical chemistry. B, 2011).
Changes are numbered by the printed parent chain.

Assays:
[1] = target: T1, Ht cyt c552 (Hydrogenobacter thermophilus cytochrome c552) (Hydrogenobacter thermophilus, UniProt P15452, M77A); test: protein film voltammetry titration, pyrolytic graphite edge electrode; assay type: binding
T1 sequence (P15452 19-98 M77A): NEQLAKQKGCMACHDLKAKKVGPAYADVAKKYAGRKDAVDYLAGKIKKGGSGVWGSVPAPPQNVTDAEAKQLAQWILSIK

[2] = target: T2, Ht cyt c552 (Hydrogenobacter thermophilus cytochrome c552) (Hydrogenobacter thermophilus, UniProt P15452); test: as above; assay type: binding
T2 sequence (P15452 19-98): T1 sequence (P15452 19-98 M77A) with A59M

Q: `c1c[nH]cn1` [Im, imidazole] was tested. Which Kd [1] did it give?
A: 756 µM

Q: What about the Kd [2] of the same compound?
A: 2400 µM
